Test results: US20240400572A1, “COMPOUNDS AND METHODS FOR TREATING CANCERS THAT ARE MGMT DEFICIENT REGARDLESS OF MMR STATUS” (Yale University, priority 2021, published 2024)

How the values were obtained:
[1] = tested on: LN229 MGMT+/−, MMR+/− isogenic lines; assay: Short-term cell viability assay with ROS scavenger NAC; format: cell-based, human; settings: pre-treated with increasing concentrations of NAC
Procedure: FIGS. ZS5A-ZS5D. […] Columns, mean; error bars, SD; n=2 independent analyses. For (FIG. ZS5A) and (FIG. ZS5C), points, mean; error bars, SD; n=3 technical replicates.
Short-term Cell Viability Assay. Cells were seeded in 96-well plates at 1000 or 2000 cells/well and allowed to adhere at 23° C. for 60 min and then incubated overnight at 37° C. Cells were treated with indicated concentrations of compounds in triplicate for 4-6 days prior to fixation with 3.7% paraformaldehyde and nuclear staining with 1 μg/mL Hoechst 33342 dye. Cells were imaged on a Cytation 3 imaging reader (BioTek) and quantified using CellProfiler software.

[2] = tested on: BJ fibroblast cells; assay: Short-term cell viability in normal fibroblasts; format: cell-based, human; settings: KL-50 compared with TMZ
Procedure: Cell Culture. LN229 MGMT− and MGMT+ cell lines were a gift from B. Kaina (Johannes Gutenberg University Mainz, Mainz, Germany) and grown in DMEM with 10% FBS (Gibco). DLD1 BRCA2+/− and BRCA2−/− cell lines (Horizon Discovery, Cambridge, UK) were grown in RPMI 1640 with 10% FBS. HCT116 MLH1−/− and HCT116+Chr3 cell lines were a gift from T. Kunkel (National Institute of Environmental Health Sciences, Durham, NC) and grown in DMEM with 10% FBS, with […] G418 (Sigma) for HCT116+Chr3 cells. PD20 cell lines complemented with empty vector (+EV), wildtype FANCD2 (+FD2), or K561R ubiquitination-mutant FANCD2 (+KR) were a gift from G. Kupfer and P. Glazer (Yale University, New Haven, CT) and growth in DMEM with 10% FBS. PEO1 and PEO4 cell lines were a gift from T. Taniguchi (Fred Hutchinson Cancer Research Center, Seattle, WA) and were grown in DMEM with 10% FBS. BJ fibroblasts (normal human fibroblast cells) were purchased from ATCC (CRL-2522) and grown in DMEM with 10% FBS. […] All human cell lines were validated by short tandem repeat profiling (excluding BJ fibroblasts which were used within 6 passages of receiving from ATCC) and confirmed negative for mycoplasma by quantitative RT-PCR.
Short-term Cell Viability Assay. […] Cells were imaged on a Cytation 3 imaging reader (BioTek) and quantified using CellProfiler software.

## NC(=O)c1ncn2c(=O)n(CCF)nnc12 [KL-50, 3-(2-fluoroethyl)-4-oxo-3H,4H-imidazo[4,3-d][1,2,3,5]tetrazine-8-carboxamide]
[1]
  rescue of toxicity by NAC (in words): did not result in rescue
[2]
  cytotoxicity in normal human fibroblast cells (in words): no increase in toxicity
